Results published in ChEMBL document CHEMBL3112545, “Gabapentin hybrid peptides and bioconjugates” (Bioorg Med Chem, 2014).
The source made the active and inactive calls. The rule behind the calls is not given here.

Assays:
[1] = Toxicity in mouse; assay type: organism-based; details: in vivo
[2] = Stability of the compound in HCl-MeOH/HCl-1,4-dioxane/TFA-DCM assessed as release of gabapentin, S-nucleophile, 2-aza-spiro[4,5]decan-3-one; assay type: physicochemical; details: buffer
[3] = Stability of the compound in HCl-MeOH/HCl-1,4-dioxane/TFA-DCM assessed as release of gabapentin, O-nucleophile, 2-aza-spiro[4,5]decan-3-one; assay type: physicochemical; details: buffer
[4] = Stability of the compound assessed as cyclization into tert-butyl 3-oxo-2-azaspiro[4.5]decane-2-carboxylate at room temperature measured over 12 months; assay type: physicochemical; details: 8766 h
[5] = Stability of the compound assessed as intramolecular cyclization/decomposition measured over 12 months; assay type: physicochemical; details: 8766 h
Mus musculus [6] = assay: Toxicity in ip dosed SKH1-hrhr mouse assessed as change in reward licking events measured up to 3 hrs; assay type: organism-based; details: in vivo
Mus musculus [7] = assay: Toxicity in ip dosed capasaicin-induced SKH1-hrhr mouse assessed as mortality measured up to 3 hrs; assay type: organism-based; details: in vivo
Mus musculus [8] = assay: Antinociceptive activity in ip dosed capsaicin-induced SKH1-hrhr mouse assessed change in reward licking events measured 30 mins post injection; assay type: functional, organism-based
Mus musculus [9] = assay: Toxicity in ip dosed SKH1-hrhr mouse assessed as mortality measured up to 3 hrs; assay type: organism-based; details: in vivo
[10] = Oral bioavailability in cynomolgus monkey at 39 mg/kg; assay type: ADME, organism-based, Macaca fascicularis; details: in vivo
Cynomolgus monkey = assay: Oral bioavailability in cynomolgus monkey assessed as gabapentin at 36 mg/kg; assay type: ADME, organism-based, Macaca fascicularis; details: in vivo

## O=C1CC2(CCCCC2)CN1
[1]
  LD50: 300 mg/kg

## COC(=O)[C@H](CSC(=O)CC1(CNC(=O)OC(C)(C)C)CCCCC1)NC(=O)[C@H](Cc1ccccc1)NC(=O)OCc1ccccc1
[2]
  Stability: Unstable

## CC(C)[C@H]1CC[C@H](C)C[C@@H]1OC(=O)CC1(CNC(=O)OC(C)(C)C)CCCCC1
[3]
  Stability: Unstable
[4]
  Stability: Unstable

## CC(C)[C@H](N)C(=O)NCC1(CC(=O)O)CCCCC1
[5]
  Stability: Stable

## C[C@H](N)C(=O)NCC1(CC(=O)O)CCCCC1
[5]
  Stability: Stable
Mus musculus [6]
  Activity: Non-toxic
Mus musculus [7]
  Activity: Non-toxic
Mus musculus [8]
  Activity: Active
Mus musculus [9]
  Activity: Non-toxic

## CC(C)CCC[C@@H](C)[C@H]1CC[C@H]2[C@@H]3CC=C4C[C@@H](OC(=O)CC5(CNC(=O)OC(C)(C)C)CCCCC5)CC[C@]4(C)[C@H]3CC[C@]12C
[3]
  Stability: Unstable

## Cl.NCC1(CC(=O)NCc2ccccc2)CCCCC1
Mus musculus [6]
  Activity: Non-toxic
Mus musculus [9]
  Activity: Non-toxic

## C[C@H](NC(=O)CNC(=O)OCc1ccccc1)C(=O)NCCC(=O)NCC1(CC(=O)O)CCCCC1
[5]
  Stability: Stable

## CC(N)C(=O)NC(Cc1ccccc1)C(=O)NCC1(CC(=O)O)CCCCC1.Cl (racemic)
[5]
  Stability: Stable

## NCC1(CC(=O)O)CCCCC1 [GABAPENTIN]
[1]
  LD50: > 8000 mg/kg
Mus musculus [6]
  Activity: Non-toxic
[10]
  bioavailability: 25%
Mus musculus [9]
  Activity: Non-toxic

## C[C@H](NC(=O)CN)C(=O)NCCC(=O)NCC1(CC(=O)O)CCCCC1
[5]
  Stability: Stable

## C[C@H](NC(=O)OCc1ccccc1)C(=O)NCC1(CC(=O)O)CCCCC1
[5]
  Stability: Stable

## CC(C)[C@H](NC(=O)OCc1ccccc1)C(=O)NCC1(CC(=O)O)CCCCC1
[5]
  Stability: Stable

## CC(C)(C)OC(=O)NCC1(CC(=O)Sc2ccccc2)CCCCC1
[2]
  Stability: Unstable

## CC(OC(=O)NCC1(CC(=O)O)CCCCC1)OC(=O)C(C)C (stereo not given) [GABAPENTIN ENACARBIL]
Cynomolgus monkey
  F: 84%

## C[C@H](NC(=O)OC(C)(C)C)C(=O)N[C@@H](Cc1ccccc1)C(=O)NCC1(CC(=O)O)CCCCC1
[5]
  Stability: Stable
